Source: a melting point compilation (Tetko et al.; mined from patent text by program, amines drawn as free bases though some values may be those of a salt)

Row | SMILES | melting point
1 | Cc1ccc(S(=O)(=O)NCCOS(=O)(=O)c2ccc(C)cc2)cc1 | 89 to 90 °C
2 | CCOC(=O)C(C=O)Cc1cnc(C)c(C)c1 (configuration not stated) | 148 to 149 °C
3 | CCOC(=O)CCCCN1CCc2ccc(NS(=O)(=O)c3ccccc3)cc2C1 | 120 to 121 °C
4 | CC(=O)OCC(=O)C1(O)CCC2C3CCC4=CC(=O)CCC4(C)C3=CCC21C (configuration not stated) | 234 °C
5 | Cc1ccc2cccc(OCc3cccc([N+](=O)[O-])c3C)c2n1 | 184 to 188 °C
6 | ClCCc1c[nH]c(-c2ccc(OCc3ccccc3)cc2)n1 | 163 to 165 °C
7 | CCc1nc2c(C)cc(C)nc2n1Cc1ccc(C(c2ccccc2)C(CO)c2nnn[nH]2)cc1 (configuration not stated) | 128 to 132 °C
8 | Cc1ccc(S(=O)(=O)N2CC(NC(=O)c3ccccc3)CC2C(=O)O)cc1 (configuration not stated) | 120 to 125 °C
9 | COC(=O)c1ccccc1C1CC(c2ccccc2)=NO1 (configuration not stated) | 93.5 to 95 °C
10 | OCc1cccc(C(O)(C(F)(F)F)C(F)(F)F)n1 | 62 to 63 °C
11 | O=C(Oc1ccccc1)N1CCC2(CC1)c1ccccc1Sc1ccccc12 | 149 to 151 °C
12 | CCC(C)OC(=O)C(S)(C#N)C1=NC(C)Cc2cc(OC)c(OC)cc21 (configuration not stated) | 113 to 114 °C
13 | CC(=O)N1CCc2cc(CCN3CCC(c4noc5cc(F)ccc45)CC3)sc2C1 | 130 to 132 °C
14 | Cc1csc(-c2nc3c4ccccc4ccn3c2N)c1 | 152 to 155 °C
15 | COCCNC(=O)c1c(O)c2cc(Cl)ccc2n(C)c1=N | 209 to 211 °C
16 | Fc1ccc(Oc2ncccc2COCc2ccccc2)cc1 | 49 to 50 °C
17 | COc1ccc(C2=NN(CCCCBr)C(=O)[C@H]3CC=CC[C@@H]23)cc1OC (relative stereo) | 102 to 103 °C
18 | CCCCCCCC[Si](C)(C)CCSCCNC(=O)n1cc(F)c(=O)[nH]c1=O | 60 to 61 °C
19 | COc1ccc2cc(CCCCC(O)CCc3cccnc3)ccc2c1 (configuration not stated) | 83 to 84 °C
20 | Cc1cc(S(=O)(=O)c2ccc(N)cc2)cc(Br)n1 | 189 to 191 °C
21 | C#CCOc1cc(N2C(=O)c3ccccc3C2=O)c(F)cc1C#N | 242 °C
22 | Cc1cc(SCc2ccc(OCc3ccc(C(C)(C)C)cc3)cc2)ccc1OCC(=O)O | 135 to 137 °C
23 | CCOC(=O)C[C@H]1O[C@H](c2ccc(OCC)cc2OC)c2cc(Cl)ccc2N(CC(C)(C)C)C1=O (relative stereo) | 164 to 166 °C
24 | Clc1c2ccccc2nc2occc12 | 112 to 113 °C
25 | C/C(=C\c1ccc(OC(C)C)cc1Oc1ncc(C(F)(F)F)cc1Cl)C(=O)NS(=O)(=O)NC1CCC(C)CC1 (configuration not stated) | 177 °C

Row | SMILES | melting point
26 | O=C(O)C1Cc2c([nH]c3ccccc23)CN1C(=S)SCCc1ccccc1 (configuration not stated) | 89 to 90 °C
27 | COC(C)c1ccc(-c2ccc(O)cc2)cc1 (single isomer, unassigned; (+)) | 174 to 175 °C
28 | CS(=O)(=O)Nc1n[nH]c(-c2ccncc2)c1-c1ccc(F)cc1 | 168 to 170 °C
29 | CCCCCC(C=Cc1ccc(C(=O)O)cc1)c1ccc2c(c1)C(C)(C)CCS2 (racemic) | 146 °C
30 | Cn1nc(-c2cccnc2)c(C=Cc2ccccc2C(=O)O)c1Cl | 183 to 185 °C
31 | COc1cc(S(C)(=O)=O)ccc1-c1nc2cnccc2[nH]1 | 234 to 235 °C
32 | CCN1C(=O)CCc2cc(S(=O)(=O)c3cccc([C@@]4(O)CCO[C@@H](C)C4)c3)ccc21 | 122 to 124 °C
33 | COc1ccc(C(=C/C=C/C(=O)NCCCCc2cncc3ccccc23)c2ccc(OC)cc2)cc1 | 91 to 93 °C
34 | CN(C1CCN(CC(C)(C)O)CC1)S(=O)(=O)c1ccc(Nc2nccc(Nc3ccc(F)cc3)n2)cc1 | 216 to 217 °C
35 | Cc1cc(O)ccc1-c1ccc2cc(O)ccc2c1 | 191 to 193 °C
36 | O=C(O)c1cc(Oc2ccc([N+](=O)[O-])cc2)cc(Oc2ccc([N+](=O)[O-])cc2)c1 | 230 to 232 °C
37 | CCOCc1nc2c(N)nc3cc(Br)ccc3c2n1CC1CCCCN1C(=O)OC(C)(C)C (configuration not stated) | 190 to 192 °C
38 | C1=C(c2cccc3[nH]ccc23)CNCC1 | 156 °C
39 | CC(=O)OC1CSC(Oc2ccc3sc(C)nc3c2)C(OC(C)=O)C1OC(C)=O (configuration not stated) | 158 °C
40 | COC(=O)c1ccc(C(=O)Nc2cc3c4c(c2)CCCC4(C)CCC3)s1 | 212 °C
41 | Cn1cc(CO)c(=O)c2ccc(C(F)(F)F)cc21 | 172 to 175 °C
42 | CCOC(=O)C1=C(C=O)Nc2ccnc(OC(C)C)c2C1c1ccccc1 (configuration not stated) | 132 to 135 °C
43 | COC(=O)CCCc1cc2nc(C(F)(F)F)ccc2n1S(=O)(=O)c1ccc2c(c1)OCCN2C | 118 °C
44 | CCc1cccc(CC)c1NS(=O)(=O)c1ccc(C)cc1 | 130 to 131 °C
45 | O=C1c2ccccc2C(=O)N1OC/C=C/C=C/c1ccc(F)cc1 | 155 to 157 °C
46 | O=c1n(CC2CO2)c(=O)n(CC2CO2)n1CC1CO1 (configuration not stated) | 93 to 94 °C
47 | CCOC(=O)Cc1c2ccccc2n2c(-c3cccs3)nccc12 | 94 to 95 °C
48 | COC(=O)/C=C/c1c(OC)cccc1OC | 76 to 78 °C
49 | CN1c2cc(Cl)ccc2-c2nc3ccccc3c3cccc1c23 | 272 to 274 °C
50 | Cc1ccc(C(=O)P2(=O)Oc3ccccc3-c3ccccc32)c(C)c1 (configuration not stated) | 166 °C

Row | SMILES | melting point
51 | CC(C)(Cc1c[nH]c2ccccc12)NC[C@H](O)CO | 77 to 77.8 °C
52 | O=S(=O)(CCCCl)Nc1cccc(Oc2cccc3cccnc23)c1 | 138 to 140 °C
53 | COC(=O)c1c(Cl)c(Cl)c(Cl)c(Cl)c1C#N | 82 to 83 °C
54 | C=C1SC(=O)N(c2ccc3cc(-c4cc5c(c(-c6ccncc6)c4)OCO5)ccc3c2)C1=O | 304 to 307 °C
55 | FC(F)(F)c1ccc(-c2cc(Oc3ccc4c(C(F)(F)F)ccnc4c3)ncn2)cc1 | 129 to 131 °C
56 | COc1cc(OC)nc(Oc2ccc3[nH]c(C)c(C=O)c3c2C(=O)OCc2ccccc2)n1 | 148 to 149 °C
57 | CC(C)n1nc(-c2sc(NC(=O)CN(C)CCc3ccccn3)nc2-c2ccccc2)ccc1=O | 94 to 96 °C
58 | CC12CCC(=O)C=C1C(=O)CC1C2CCC2(C)C(c3cccnc3)=CCC12 (configuration not stated) | 210 to 212 °C
59 | CCOC(=O)c1cnc2c(c1O)CC(C)CC2 (configuration not stated) | 228 to 231 °C
60 | CCN(CC)C(=O)C1CCC2C3CC=C4N(C)C(=O)CCC4(C)C3CCC12C (configuration not stated) | 115 to 118 °C
61 | CCOC(=O)C(=NOC)C1=CSc2ccccc2S1 | 78 to 81 °C
62 | CSc1nc(N)c(C(N)=S)s1 | 192 to 195 °C
63 | CC(C)(C)c1ccc(C(=O)c2ccc(C(C)(C)C)cc2)cc1 | 132 to 136 °C
64 | COc1cccc2sc(Sc3ccc4c(c3)CC[C@H]3N(C)C(=O)CC[C@]43C)nc12 | 200 to 205 °C
65 | CNC(=O)N1N=C(c2ccc(N)cc2)c2cc(Br)ccc2CC1C (configuration not stated) | 121 to 124 °C
66 | COc1cc2c(cc1O)CC1CN(C)Cc3c(O)c(OC)cc-2c31 (configuration not stated) | 300 °C
67 | CCn1c(=O)c2nc(C=O)cn2c2ccccc21 | 302 to 306 °C
68 | CNS(=O)(=O)c1ccccc1Nc1nc(Nc2ccc3c(c2)CCCC(=O)N3CC(=O)O)ncc1Cl | 192 to 195 °C
69 | C1=CNC2=NCCN2C1 | 107 to 113 °C
70 | CC(C)Cc1cc2cc(O)ccc2c(Oc2ccc(/C=C/C(=O)O)cc2)c1-c1ccccc1 | 126 to 128 °C
71 | Nc1nc(-c2cc(Cl)ccc2Cl)nc(N2CCS(=O)CC2)n1 | 267 to 269 °C
72 | CC(=O)OCC1CCn2c(c(C3=C(c4cn(C)c5ccccc45)C(=O)OC3=O)c3ccccc32)C1 (configuration not stated) | 174 to 178 °C
73 | CCCCCCCOc1ccc(CCC(CO)(CCO)NC(=O)c2cc([N+](=O)[O-])cc([N+](=O)[O-])c2)cc1 (single isomer, unassigned; (+)) | 78 to 79 °C
74 | CCOC(=O)Oc1ccc(C(=O)OCCN2CCN(CCN3CCOCC3)CC2)cc1 | 85 to 87 °C
75 | COC(=O)C(C)Oc1ccc(COc2ccc(Cl)cc2Cl)cc1 (configuration not stated) | 64 °C

Row | SMILES | melting point
76 | NC(=O)CC(CC(N)=O)c1cccc(OCc2ccccc2)c1 | 205 to 207 °C
77 | COc1cccc(N2CCN(C(=O)Oc3ccc(Oc4ccc(C(F)(F)F)cn4)cc3)CC2)c1 | 109 to 111 °C
78 | Cc1sc(-c2ccc(C#N)cc2)nc1O | 220 to 221 °C
79 | NS(=O)(=O)c1ccsc1C(=O)OC1COC1 | 158 to 160 °C
80 | Cc1ccccc1C(Oc1cc(OCc2ccc3c(c2)OCO3)ccc1C#N)c1nnn[nH]1 (racemic) | 106 to 109 °C
81 | CN(C)c1ncc(-c2cccc(-n3cnc4cc(-c5ccco5)ccc43)c2)cn1 | 170 to 172 °C
82 | CCOc1ccc(C(CC(=O)OC)N2C(=O)c3ccc(N)cc3C2=O)cc1OCC (configuration not stated) | 143 to 145 °C
83 | CCn1ncc2c1ncc1c(OCCCN(C)C)nc3cc(C)nn3c12 | 62 to 64 °C
84 | Cn1c(COc2ccc(CC3SC(=O)NC3=O)cc2)nc2ccc(Oc3ccc4cccc(NC(=O)NCc5ccccc5)c4c3)cc21 (configuration not stated) | 220 to 222 °C
85 | NC(=O)C(=C1CSc2ccccc2N1)c1ccc(Cl)cc1 | 188 to 191 °C
86 | CC(=O)OCC1(C)OCC2(CO1)COC(C)(COC(C)=O)OC2 (configuration not stated) | 66 to 67 °C
87 | c1ccc(Cn2cc(-c3ncc(-c4ccc5cc(OCc6nnn[nH]6)ccc5c4)o3)c3ccccc32)cc1 | 244 to 246 °C
88 | CCS(=O)(=O)Nc1cnc(N2CCC(C(=O)O)CC2)nc1NCc1ccccc1 | 205 °C
89 | Cc1nc(Cn2c(NC3CCN(CCc4c(C)nc5sccn5c4=O)CC3)nc3ccccc32)cs1 | 130 °C
90 | CCOC1=C(C(=O)O)CN(C2CCCCC2)C1=O | 154 to 155 °C
91 | CC(C)c1ccc2c(CCCCN(C)S(=O)(=O)c3ccccc3)cc(C(=O)O)c-2cc1 | 153 to 155 °C
92 | CC(=O)Nc1c(F)cc(F)cc1SCC#N | 148 to 149 °C
93 | O=C(C=Cc1ccccc1O)OCCc1ccccc1 | 40 °C
94 | O=C(CNC(=O)c1ccc([N+](=O)[O-])c(I(=O)=O)c1)OCc1ccccc1 | 196 to 198 °C
95 | CC(=O)N1CCCC(C(=O)c2ccc(N3CCCCC3)cc2)C1 (configuration not stated) | 116 to 120 °C
96 | C=CC/C=C(\C(=O)O)c1cc(OC)c(O)c2c(Cc3ccccc3)cccc12 | 156 to 158 °C
97 | CCCc1nn(-c2ccc(C(F)(F)F)cn2)cc1CCCOc1cc(CCC(=O)O)cc(OC)c1 | 98 to 99 °C
